Experimental data as given in paper PMC7782499, “Progerinin, an optimized progerin-lamin A binding inhibitor, ameliorates premature senescence phenotypes of Hutchinson-Gilford progeria syndrome” (Communications Biology, 2021).
Where “and” joins values, the source holds several entries; their conditions need not be identical. Identical values can stand only once.

Tested on: H3K9me3
Assay: H3K9me3 expression in HGPS cells
Type: cell-based, human
Conditions: for H3K9me3 intensity / H3K9me3 positive cells after treatment with chemicals, Ave / H3K9me3 positive cells after treatment with chemicals: AG03198; for H3K9me3 positive cells after treatment with chemicals, Ave: average; for H3K9me3 positive cells after treatment with chemicals: single replicates
Procedure: Fig. 1 SLC-D011 ameliorates premature aging features of HGPS. A. HEK293 cells were transiently transfected with expression vector encoding wild-type lamin A (WT-LA), lamin A-C661A (LA-C661A), progerin, or progerin-C611A. LA-C661A or progerin-C611A with point mutation in CaaX motif was predicted to be lack of farnesylation, […] that of authentic WT-LA or progerin. GFP-conjugated empty expression vector was used as a negative control. Cells were visualized at 24 h after transfection. B Transient transfection of HEK293 cells with expression vector encoding progerin or […] leads to reduced expression of H3K9me3 (n = 3 independent experiments; two-tailed Student’s t test). C. JH4 derivatives (JH010 and SLC-D011(D011)) inhibit lamin A and progerin interaction. For binding inhibition assay, bead-conjugated lamin A (GST-LA) was incubated with HEK293 cells, transiently transfected with GFP-progerin (PG), and treated with indicated chemicals. Actin was used as a loading control. PPT, co-precipitated materials with recombinant proteins; Sup supernatant. 5 μM of each chemical was used for binding assay. […] H3K9me3 reduction is a well-known marker for premature aged cells. Thus, H3K9me3 expression was evaluated by immunostaining. […] E SLC-D011 obviously suppresses progerin expression. For progerin expression analysis, each chemical was used to treat HGPS cells (AG03198, Coriell Cell Repositories) for 7 days. […] F SLC-D011 reduces the expression of progerin in other HGPS cells (AG11513 and AG11498, Coriell Cell Repositories). Treatment with SLC-D011 (2 μM) for 7 days reduced the expression of progerin and p16/INK4A but induced the expression of H3K9me3. […] G JH4, JH010, and SLC-D011 promote cell proliferation. Cell viability was determined by MTT assay after incubation with chemicals for 7 days (n = 3 independent experiments; two-tailed Student’s t test). H JH4, JH010, and SLC-D011 show similar activity for ameliorating nuclear deformation. After incubation with chemicals for 7 days, cells were stained with progerin and H3K9me3 antibodies (n = 3 independent experiment; two-tailed Student’s t test), **p < 0.001. Data are reported as mean ± SD. “Con” means Dimethyl sulfoxide (DMSO)-treated control. The data are normalized to DMSO-treated cells.
Cells were cultured on coverslips, washed with PBS, fixed with 4% paraformaldehyde (PFA) for 30 min at RT, and then permeabilized with 0.2% Triton X-100 at RT for 5 min. After treatment with blocking solution (anti-Human antibody diluted 1:400 in PBS) for 1 h, cells were incubated with anti-lamin A/C (1:400), anti-progerin (1:100), Ki67 (1:200), and anti-H3K9me3 (1:200) in blocking buffer overnight at 4 °C. Finally, cells were incubated with fluorescein isothiocyanate and rhodamine-conjugated secondary antibodies at 4 °C for 7 h. Nuclei were stained with DAPI (4, 6-diamidino-2-phenylindole) at RT for 10 min. After cells were washed three times with PBS, coverslips were mounted with mounting solution (H-5501; Vector Laboratories, Burlingame, CA, USA). Immunofluorescence signal was detected with a fluorescence microscopy (Zeiss and Logos).
For nuclear deformation cell counting, immunofluorescence staining was performed with lamin A or progerin antibodies. After staining, abnormal nuclear membrane was counted in randomly selected fields and expressed as percentages or actual numbers of total cells counted. Abnormalities of nuclear membrane were determined based on the following: (1) lamin A/C or progerin lining was extruded or engulfed, (2) having at least one bleb, and (3) irregular contour. Counting of cells with nuclear deformation was performed by three independent observers who were blinded to chemical treatment group. To analyze histone H3K9me3 intensity or expression, images were quantified using “color histogram” function of Image J software (National Institute of Health, NIH). Fluorescence intensities were subtracted by background signals.

CC1(C)Oc2cc3oc(=O)ccc3cc2C[C@@H]1OC/C=C/c1ccccc1 [SLC-D011]
H3K9me3 intensity: 0.227 AU and 0.219 AU and 0.255 AU and 0.254 AU
H3K9me3 positive cells after treatment with chemicals, Ave (2μM): 19.5
H3K9me3 positive cells after treatment with chemicals (2μM): 15 and 23 and 20 and 19 and 22 and 18
H3K9me3 positive cells after treatment with chemicals, Ave (5μM): 25.1667
H3K9me3 positive cells after treatment with chemicals (5μM): 20 and 24 and 27 and 28 and 29 and 23
H3K9me3 positive cells after treatment with chemicals, Ave (10μM): 29
H3K9me3 positive cells after treatment with chemicals (10μM): 24 and 33 and 32 and 30 and 29 and 26
H3K9me3 intensity (mean): 0.2387 AU
Effect on H3K9me3 expression (HGPS cells): induce H3K9me3 expression

CC1(C)Oc2cc3oc(=O)ccc3cc2CC1OC(=O)C=Cc1cccnc1 (stereo not drawn) [JH4]
H3K9me3 positive cells after treatment with chemicals, Ave (2μM): 14.5
H3K9me3 positive cells after treatment with chemicals (2μM): 13 and 17 and 15 (2×) and 11 and 16
H3K9me3 positive cells after treatment with chemicals, Ave (5μM): 21.6667
H3K9me3 positive cells after treatment with chemicals (5μM): 27 and 16 and 20 and 22 (2×) and 23
H3K9me3 positive cells after treatment with chemicals, Ave (10μM): 27
H3K9me3 positive cells after treatment with chemicals (10μM): 30 and 29 and 24 and 25 and 27 (2×)
